{"source": "patent US11583516B2", "about": "“Dash inhibitors, and uses related thereto” (Trustees of Tufts College, priority 2016, dated 2023)", "key": {"[1]": {"tested_on": "G-CSF", "experiment": "Serum cytokine induction in mice (G-CSF screen)", "assay_type": "in vivo, BALB/c mice", "from_the_text": "No. MKC00B) • IL-18 (R&D Systems, Cat. […] Systems, Cat. No. […])"}, "[2]": {"tested_on": "CT26 cells", "experiment": "CT26 cell viability", "assay_type": "cell-based"}, "[3]": {"tested_on": "MV4;11 cells", "experiment": "Cell line drug sensitivity (CellTiter-Glo)", "assay_type": "cell-based", "conditions": "MV4;11, AML M5; 48 h; read-out: IC50"}, "[4]": {"tested_on": "NB4 cells", "experiment": "Cell line drug sensitivity (CellTiter-Glo)", "assay_type": "cell-based", "conditions": "NB4, AML/APL M3; 48 h; read-out: IC50"}, "[5]": {"tested_on": "DAOY cells", "experiment": "Cell line drug sensitivity (CellTiter-Glo)", "assay_type": "cell-based", "conditions": "DAOY, Medulloblastoma; 48 h; read-out: IC50", "procedure": "(§1) SET-2, RS4;11, and SKM-1 cells were purchased from DSMZ. HL-60, MV4;11, OCI-AML2, NB4, MOLM-13, NOMO-1, DAOY, HEL, IMR-5, K562, Kasumi-1, ONS-76, RDES-1, and TC-71 cells were a gift from Alex Kentsis and verified using STR genotyping (Genetica). […] MCF-7, Jurkat, THP-1, U937, HL-60, MV4;11, OCI-AML2, NB4, MOLM-13, NOMO-1, HEL, K562, SET-2, RS4;11, SKM-1 and Kasumi-1 were grown in RPMI-1640 medium with 10% FBS. All cells were grown at 37° C. in a 5% CO2 incubator. Cell lines were tested for mycoplasma using the MycoAlert Mycoplasma Detection Kit (Lonza).\n(§2) Cells were plated (2000 cells/well) in white, 384-well clear bottom plates using an EL406 Microplate Washer/Dispenser (BioTek) in 25 μL final volume of media. Compounds were added using a pintool (CyBio) and cells were incubated for 48 h at 37° C. Assay plates were then removed from the incubator and allowed to equilibrate to room temperature on the bench top before addition of 10 μL of CellTiter-Glo reagent (Promega) according to the manufacturer's instructions. Assay plates were shaken on an orbital shaker for 2 minutes and incubated at room temperature on the bench top for 10 minutes. Luminescence was then read using a Cytation 5 Cell Imaging Multi-Mode Reader (BioTek). (FIG. 6)"}, "[6]": {"tested_on": "HEL cells", "experiment": "Cell line drug sensitivity (CellTiter-Glo)", "assay_type": "cell-based", "conditions": "AML/Erythroleukemis M6, 48 h, read-out: IC50", "procedure": "as §1, §2"}, "[7]": {"tested_on": "HL-60 cells", "experiment": "Cell line drug sensitivity (CellTiter-Glo)", "assay_type": "cell-based", "conditions": "HL-60, AML M2; 48 h; read-out: IC50", "procedure": "as §1, §2"}, "[8]": {"tested_on": "HT-1080 cells", "experiment": "Cell line drug sensitivity (CellTiter-Glo)", "assay_type": "cell-based", "conditions": "HT-1080, Fibrosarcoma; 48 h; read-out: IC50", "procedure": "as §1, §2"}, "[9]": {"tested_on": "IMR-5 cells", "experiment": "Cell line drug sensitivity (CellTiter-Glo)", "assay_type": "cell-based", "conditions": "IMR-5, Neuroblastoma; 48 h; read-out: IC50", "procedure": "as §1, §2"}, "[10]": {"tested_on": "Jurkat cells", "experiment": "Cell line drug sensitivity (CellTiter-Glo)", "assay_type": "cell-based", "conditions": "T-ALL, 48 h, read-out: IC50", "procedure": "as §1, §2"}, "[11]": {"tested_on": "K562 cells", "experiment": "Cell line drug sensitivity (CellTiter-Glo)", "assay_type": "cell-based", "conditions": "K562, CML/Erythroleukemia; 48 h; read-out: IC50", "procedure": "as §1, §2"}, "[12]": {"tested_on": "KG-1 cells", "experiment": "Cell line drug sensitivity (CellTiter-Glo)", "assay_type": "cell-based", "conditions": "KG-1, AML M0; 48 h; read-out: IC50", "procedure": "as §1, §2"}, "[13]": {"tested_on": "Kasumi-1 cells", "experiment": "Cell line drug sensitivity (CellTiter-Glo)", "assay_type": "cell-based", "conditions": "Kasumi-1, AML M2; 48 h; read-out: IC50", "procedure": "as §1, §2"}, "[14]": {"tested_on": "MCF7 cells", "experiment": "Cell line drug sensitivity (CellTiter-Glo)", "assay_type": "cell-based", "conditions": "MCF7, Breast; 48 h; read-out: IC50", "procedure": "as §1, §2"}, "[15]": {"tested_on": "MOLM-13 cells", "experiment": "Cell line drug sensitivity (CellTiter-Glo)", "assay_type": "cell-based", "conditions": "MOLM-13, AML M5; 48 h; read-out: IC50", "procedure": "as §1, §2"}, "[16]": {"tested_on": "NOMO-1 cells", "experiment": "Cell line drug sensitivity (CellTiter-Glo)", "assay_type": "cell-based", "conditions": "NOMO-1, AML M5; 48 h; read-out: IC50", "procedure": "as §1, §2"}, "[17]": {"tested_on": "OCI-AML3 cells", "experiment": "Cell line drug sensitivity (CellTiter-Glo)", "assay_type": "cell-based", "conditions": "OCI-AML3, AML M4; 48 h; read-out: IC50", "procedure": "as §1, §2"}, "[18]": {"tested_on": "ONS-76 cells", "experiment": "Cell line drug sensitivity (CellTiter-Glo)", "assay_type": "cell-based", "conditions": "ONS-76, Medulloblastoma; 48 h; read-out: IC50", "procedure": "as §1, §2"}, "[19]": {"tested_on": "RDES-1 cells", "experiment": "Cell line drug sensitivity (CellTiter-Glo)", "assay_type": "cell-based", "conditions": "RDES-1, Ewing's sarcoma; 48 h; read-out: IC50", "procedure": "as §1, §2"}, "[20]": {"tested_on": "SET-2 cells", "experiment": "Cell line drug sensitivity (CellTiter-Glo)", "assay_type": "cell-based", "conditions": "SET-2, AML/MPN; 48 h; read-out: IC50", "procedure": "as §1, §2"}, "[21]": {"tested_on": "SKM-1 cells", "experiment": "Cell line drug sensitivity (CellTiter-Glo)", "assay_type": "cell-based", "conditions": "SKM-1, AML M5; 48 h; read-out: IC50", "procedure": "as §1, §2"}, "[22]": {"tested_on": "TC-71 cells", "experiment": "Cell line drug sensitivity (CellTiter-Glo)", "assay_type": "cell-based", "conditions": "TC-71, Ewing's sarcoma; 48 h; read-out: IC50", "procedure": "as §1, §2"}, "[23]": {"tested_on": "THP-1 cells", "experiment": "Cell line drug sensitivity (CellTiter-Glo)", "assay_type": "cell-based", "conditions": "THP-1, AML M5; 48 h; read-out: IC50", "procedure": "as §1, §2"}, "[24]": {"tested_on": "U937 cells", "experiment": "Cell line drug sensitivity (CellTiter-Glo)", "assay_type": "cell-based", "conditions": "U937, AML/histiocytic lymphoma M5; 48 h; read-out: IC50", "procedure": "as §1, §2"}, "[25]": {"tested_on": "RS4;11 cells", "experiment": "Cell line drug sensitivity (CellTiter-Glo)", "assay_type": "cell-based", "conditions": "RS4;11, AML/B-ALL; 48 h; read-out: IC50"}, "[26]": {"tested_on": "RAW 264.7 WT cells", "experiment": "Pyroptosis IC50 in cells", "assay_type": "cell-based"}, "[27]": {"tested_on": "MV4;11 Luc-Neo", "experiment": "Pyroptosis IC50 in cells", "assay_type": "cell-based"}, "[28]": {"tested_on": "THP-1 sgGFP", "experiment": "Pyroptosis IC50 in cells", "assay_type": "cell-based"}, "[29]": {"tested_on": "CT26 tumor", "assay_type": "in vivo", "conditions": "CT26 model"}, "[30]": {"experiment": "Maximum tolerated dose study (single dose)", "assay_type": "in vivo, Sprague Dawley rats", "conditions": "with Pyrrophenone or AACOCF3, based on serum drug levels", "from_the_text": "Bars show the MTD single dose in SD rats prior to seeing animal death. […] See also FIG. 33 for a similar comparison using cPLA2 inhibitors instead of COX inhibitors.\nBars show the MTD single dose in SD rats prior to seeing animal death. Based on serum drug levels, the addition of a cPLA2 inhibitors to the I-DASH inhibitor increases that MTD dose by at least 20-fold.\nBars show the MTD single dose in SD rats prior to seeing animal death."}, "[31]": {"tested_on": "MB49 tumor", "experiment": "MB49 efficacy studies", "assay_type": "in vivo, C57BL/6 mice"}, "[32]": {"tested_on": "AML cell lines", "experiment": "AML cell line sensitivity, summary over the panel", "assay_type": "cell-based", "conditions": "most of these AML cell lines", "procedure": "as §1, §2"}, "[33]": {"tested_on": "cancer", "conditions": "in the clinic; cited from earlier work"}}, "note": "Read-outs that look alike come from different tables or passages of the source.", "data": [{"smiles": "CC(C)[C@H](N)C(=O)N1CCC[C@H]1B(O)O", "note": "[ARI-2054, Valine-boroProline]", "values": [{"measurement": "Average [G-CSF] at 6 hrs", "setting": "[1]; 20 μg/animal PO", "value": 55000, "unit": "pg/mL"}, {"measurement": "Average [G-CSF] at 6 hrs", "setting": "[1]; 20 μg/animal SC", "value": 97000, "unit": "pg/mL"}, {"measurement": "EC50", "setting": "[2]", "value": "> 1000", "unit": "µM"}, {"measurement": "IC50", "setting": "[3]", "value": 0.078, "unit": "µM"}, {"measurement": "IC50", "setting": "[4]", "value": 0.1, "unit": "µM"}, {"measurement": "IC50", "setting": "[5]", "value": "> 60", "unit": "µM"}, {"measurement": "IC50", "setting": "[6]", "value": "> 60", "unit": "µM"}, {"measurement": "IC50", "setting": "[7]", "value": 0.115, "unit": "µM"}, {"measurement": "IC50", "setting": "[8]", "value": "> 60", "unit": "µM"}, {"measurement": "IC50", "setting": "[9]", "value": "> 60", "unit": "µM"}, {"measurement": "IC50", "setting": "[10]", "value": "> 60", "unit": "µM"}, {"measurement": "IC50", "setting": "[11]", "value": "> 60", "unit": "µM"}, {"measurement": "IC50", "setting": "[12]", "value": 0.02, "unit": "µM"}, {"measurement": "IC50", "setting": "[13]", "value": "> 60", "unit": "µM"}, {"measurement": "IC50", "setting": "[14]", "value": "> 60", "unit": "µM"}, {"measurement": "IC50", "setting": "[15]", "value": 0.12, "unit": "µM"}, {"measurement": "IC50", "setting": "[16]", "value": 0.16, "unit": "µM"}, {"measurement": "IC50", "setting": "[17]", "value": 0.08, "unit": "µM"}, {"measurement": "IC50", "setting": "[18]", "value": "> 60", "unit": "µM"}, {"measurement": "IC50", "setting": "[19]", "value": "> 60", "unit": "µM"}, {"measurement": "IC50", "setting": "[20]", "value": 0.006, "unit": "µM"}, {"measurement": "IC50", "setting": "[21]", "value": 0.044, "unit": "µM"}, {"measurement": "IC50", "setting": "[22]", "value": "> 60", "unit": "µM"}, {"measurement": "IC50", "setting": "[23]", "value": 0.206, "unit": "µM"}, {"measurement": "IC50", "setting": "[24]", "value": "> 60", "unit": "µM"}, {"measurement": "IC50", "setting": "[25]", "value": 0.147, "unit": "µM"}, {"measurement": "IC50", "setting": "[26]", "value": 0.098, "unit": "µM"}, {"measurement": "IC50", "setting": "[27]", "value": 0.06, "unit": "µM"}, {"measurement": "IC50", "setting": "[28]", "value": 0.168, "unit": "µM"}, {"measurement": "Inhibition of tumor growth (average)", "setting": "[29]; 10 micrograms", "value": "about 30%"}, {"measurement": "Inhibition of tumor growth (average)", "setting": "[29]; 20 micrograms", "value": "~80", "unit": "%"}, {"measurement": "Increase of MTD dose by addition of a cPLA2 inhibitor", "setting": "[30]", "value": "at least 20 fold"}, {"measurement": "Tumor regression in combination with celecoxib", "setting": "[31]; 20 microgram dose of Val-boroPro plus celecoxib", "value": "facilitated the achievement of tumor regression"}, {"measurement": "Antitumor activity in combination with celecoxib", "setting": "[31]; Val-boroPro plus celecoxib", "value": "increased the antitumor activity of Val-boroPro markedly (statistically significantly) and in a dose-dependent manner"}, {"measurement": "IC50", "setting": "[32]", "value": "> 0.1", "unit": "µM"}, {"measurement": "Clinical response", "setting": "[33]", "value": "some partial and complete responses"}, {"measurement": "Clinical toxicity", "setting": "[33]", "value": "discontinued due to dose-limiting toxicity"}]}]}
